# Data from patent US20040048830A1, “Use of cortisol-sequestering agents for the treatment of hypercortisolaemia related disorders” (priority 2000, published 2004).
# Like-named read-outs stand apart in the source and are kept apart here. Marks after values point to notes of the source that are not given here.
# Tests used:
# [1] = Urinary excretion of exogenous cortisol in the rat; type: in vivo, Lister hooded rats
# Procedure: Two groups of four rats (Lister hooded rats, 300-320 g) were administered (intravenously) either […] of cortisol alone (Group I) or cortisol followed after 15 minutes by 6-per-deoxy-6-per-(2,3-dihydroxypropylthio)-γ-cyclodextrin (Org 26276) as a single intravenous dose of 20 mg/kg (Group II). Each rat was placed in a metabolic cage for the collection of urine. Urine samples were collected for the first 5 hours and thereafter for the remainder of 24 hours The collected urine samples were subjected to HPLC-MS (high pressure liquid chromatograpy on a Phenomenex Luna (50×2 mm; […]) column coupled to a PE Sciex API 3000 Mass Spectrometer). The limit of quantitation for cortisol in urine was 2.5 ng/ml and 10 ng/ml in plasma.
# [2] = Urinary excretion of endogenous cortisol in the guinea pig; type: in vivo; details: iv 5 mg/250 g
# Procedure: In guinea piogs cortisol is endogenously produced, the basal level of which is approximately 120-150 ng/ml in plasma.
# [3] = UV titration of cyclodextrin into cortisol (absorbance at 246 nm); type: binding; details: 1:1 cortisol:γ-cyclodextrin complex
# Excerpt: UV-visible spectroscopy was used to monitor the complex formation between cortisol and a library of cyclodextrin derivatives. The UV spectrum of cortisol contains an absorption band having a maximum at 246 nm. The intensity of the UV line at 246 nm decreases upon complexation of cortisol by addition of a cyclodextrin host molecule. The decrease in the absorbance of an aqueous solution of the guest molecule (cortisol) upon addition of a typical host molecule (like a cyclodextrin derivative) is taken as evidence that the guest molecule has moved from the polar aqueous environment to the usually less polar environment of the interior of the host molecule. The methodology is well established in the field of supramolecular chemistry (Tsukube, H. et al. In Comprehensive Supramolecular Chemistry: Physical Methods in Supramolecular Chemistry. Davies J E D, Ripmeester J A, (Eds) Elsevier, Oxford, 1996: Vol 8, pp 425-483).
# The association constants for complex formation are determined by performing a titration of cyclodextrin into cortisol and recording the UV spectrum as a function of the cyclodextrin/steroid ratio. The change in absorption of cortisol at 246 nm (Δ A) upon stepwise addition of cyclodextrin is recorded. The best fit line to the data give Ka for the cortisol-cyclodextrin complex (Liu Y, Li, B, You C-C, Wada, T, Inoue Y. J. Org. Chem., 2001, 66, 225-232). […]
# [4] = Isothermal titration calorimetry (microcalorimetry) of cortisol complex; type: binding; details: 1:1 cortisol complex, microcalorimetry / ITC
# Excerpt: The interaction between a sequestering agent and cortisol can be analyzed by physical methods such as nuclear magnetic resonance spectroscopy (nmr) (Fielding, L.: Tetrahedron, 56 (34), 6151-6170, 2000) and microcalorimetry (Stoedeman M. and Wadsoe I.: Pure Appl. Chem., 67(7), 1059-68, 1995). These techniques also allow one to establish the selectivity of the binding to cortisol in comparison with the other endogenous steroidal compounds.
# The association constants for complex formation are determined by performing a titration of cyclodextrin into cortisol and recording the UV spectrum as a function of the cyclodextrin/steroid ratio. The change in absorption of cortisol at 246 nm (Δ A) upon stepwise addition of cyclodextrin is recorded. The best fit line to the data give Ka for the cortisol-cyclodextrin complex (Liu Y, Li, B, You C-C, Wada, T, Inoue Y. J. Org. Chem., 2001, 66, 225-232). The UV methodology provides a fairly good estimate of the association constant when this constant is below 10^5 M^−1. The results used for the determination of the association constant for the binding of cortisol to γ-cyclodextrin, β-cyclodextrin and to 2 γ-cyclodextrin derivatives are shown in FIG. 1. […] This is because the chromophore in cortisol is relatively weak and instrument signal to noise issues prevented the preparation of sufficiently dilute solutions. […] The high cortisol binding constant for these γ-cyclodextrin derivatives indicates these derivatives to be potentially very active cortisol sequestering agents. An alternative, but more laborious, method for the determination of the cortisol association constant is by isothermal titration calorimetry (see Wiseman et al. […], 131-137), which can be used to determine the high Ka's more accurately.
# [5] = 1:1 cyclodextrin:cortisol complex in water, reported values; cited from earlier work
molecule,measurement,setting,value
"6-per-deoxy-6-per-(2,3-dihydroxypropylthio)-γ-cyclodextrin [Org 26276]",enhancement of excretion of cortisol compared to the control group,"[1]; 20 mg/kg iv, versus group that received cortisol alone",approximately 10 fold
same,mean cortisol level in the urine,"[1]; iv cortisol followed after 15 minutes by 20 mg/kg iv, urine collected in the first 5 hours",111 ± 78 ng/mL
same,increase of amount of urinary cortisol excreted during 24 hours compared to the control group,[2],3 fold
same,Ka,[3]; listed as Example 1,">100,000^a M^−1"
O=C(O)CCSC[C@H]1O[C@@H]2O[C@H]3[C@H](O)[C@@H](O)[C@@H](O[C@H]4[C@H](O)[C@@H](O)[C@@H](O[C@H]5[C@H](O)[C@@H](O)[C@@H](O[C@H]6[C@H](O)[C@@H](O)[C@@H](O[C@H]7[C@H](O)[C@@H](O)[C@@H](O[C@H]8[C@H](O)[C@@H](O)[C@@H](O[C@H]9[C@H](O)[C@@H](O)[C@@H](O[C@H]1[C@H](O)[C@H]2O)O[C@@H]9CSCCC(=O)O)O[C@@H]8CSCCC(=O)O)O[C@@H]7CSCCC(=O)O)O[C@@H]6CSCCC(=O)O)O[C@@H]5CSCCC(=O)O)O[C@@H]4CSCCC(=O)O)O[C@@H]3CSCCC(=O)O [6-per-deoxy-6-per-(2-carboxyethyl)thio-γ-cyclodextrin],Association Constant (Ka),[4],"~40,000 M^−1"
same,Association Constant (Ka),[4]; listed as Per-6-deoxy-per-6-(2-carboxyethyl)thio-γ-cyclodextrin,40000* M^−1
same,Ka,[3],"~30,000 M^−1"
O=C(O)c1ccc(SCC2OC3OC4C(CSc5ccc(C(=O)O)cc5)OC(OC5C(CSc6ccc(C(=O)O)cc6)OC(OC6C(CSc7ccc(C(=O)O)cc7)OC(OC7C(CSc8ccc(C(=O)O)cc8)OC(OC8C(CSc9ccc(C(=O)O)cc9)OC(OC9C(CSc%10ccc(C(=O)O)cc%10)OC(OC%10C(CSc%11ccc(C(=O)O)cc%11)OC(OC2C(O)C3O)C(O)C%10O)C(O)C9O)C(O)C8O)C(O)C7O)C(O)C6O)C(O)C5O)C(O)C4O)cc1 (centres unmarked) [6-per-deoxy-6-per-(4-carboxyphenyl)thio-γ-cyclodextrin],Association Constant (Ka),[4],"˜80,000^b M^−1"
OC[C@H]1O[C@@H]2O[C@H]3[C@H](O)[C@@H](O)[C@@H](O[C@H]4[C@H](O)[C@@H](O)[C@@H](O[C@H]5[C@H](O)[C@@H](O)[C@@H](O[C@H]6[C@H](O)[C@@H](O)[C@@H](O[C@H]7[C@H](O)[C@@H](O)[C@@H](O[C@H]1[C@H](O)[C@H]2O)O[C@@H]7CO)O[C@@H]6CO)O[C@@H]5CO)O[C@@H]4CO)O[C@@H]3CO [α-CD],Association Constant (Ka),[5],57 M⁻¹
"OC[C@H]1O[C@@H]2O[C@H]3[C@H](O)[C@@H](O)[C@@H](O[C@H]4[C@H](O)[C@@H](O)[C@@H](O[C@H]5[C@H](O)[C@@H](O)[C@@H](O[C@H]6[C@H](O)[C@@H](O)[C@@H](O[C@H]7[C@H](O)[C@@H](O)[C@@H](O[C@H]8[C@H](O)[C@@H](O)[C@@H](O[C@H]1[C@H](O)[C@H]2O)O[C@@H]8CO)O[C@@H]7CO)O[C@@H]6CO)O[C@@H]5CO)O[C@@H]4CO)O[C@@H]3CO [β-CD, β-cyclodextrin]",Association Constant (Ka),[5],1720 to 3000 M⁻¹
"OC[C@H]1O[C@@H]2O[C@H]3[C@H](O)[C@@H](O)[C@@H](O[C@H]4[C@H](O)[C@@H](O)[C@@H](O[C@H]5[C@H](O)[C@@H](O)[C@@H](O[C@H]6[C@H](O)[C@@H](O)[C@@H](O[C@H]7[C@H](O)[C@@H](O)[C@@H](O[C@H]8[C@H](O)[C@@H](O)[C@@H](O[C@H]9[C@H](O)[C@@H](O)[C@@H](O[C@H]1[C@H](O)[C@H]2O)O[C@@H]9CO)O[C@@H]8CO)O[C@@H]7CO)O[C@@H]6CO)O[C@@H]5CO)O[C@@H]4CO)O[C@@H]3CO [γ-CD, γ-cyclodextrin]",Association Constant (Ka),[5],2240 M⁻¹
Hydroxypropyl-β-CD,Association Constant (Ka),[5],900 to 1000 M⁻¹
"Per-2,6-methyl-β-CD",Association Constant (Ka),[5],5910 M⁻¹
Per-6-acetyl-β-CD,Association Constant (Ka),[5],3920 M⁻¹
